Measurements taken from patent publication US20230240964A1, “SKIN-FIRMING COSMETIC COMPOSITIONS” (Elastintech, Inc., priority 2021, published 2023).

Columns and labels:
[1] = test system: skin of a subject's left arm (elastic fibers); assay: Histology of elastin (VVG stained) punch biopsy, treated vs untreated skin; assay type: in vivo, human; details: 25% dimethyl isosorbide solution, topical, 24 days, vs untreated skin of same subject
Experimental: The skin of a subject's left arm was treated with a 25% dimethyl isosorbide solution of glucosyl pentagallate for 24 days.

[2] = test system: skin of a subject's left arm; assay: Histology of polyphenol-stained (ferric chloride) punch biopsy, treated vs untreated skin; assay type: in vivo, human; details: 25% dimethyl isosorbide solution, topical, 24 days, vs untreated skin of same subject
Experimental: The skin of a subject's left arm 2 cm^2 patch (upper under arm above elbow) was treated with a 25% dimethyl isosorbide solution of glucosyl pentagallate for 24 days. Biopsy samples of the treated skin and a similar sample of untreated skin from the same subject's right were then taken, sectioned, and stained for polyphenol (Ferric Chloride stain) and imaged with a light microscope.

[3] = "at levels of up to 10%"; cited from earlier work
human cells = human cells in vitro; cited from earlier work

Question: With O=C(OC[C@H]1O[C@@H](OC(=O)c2cc(O)c(O)c(O)c2)[C@H](OC(=O)c2cc(O)c(O)c(O)c2)[C@@H](OC(=O)c2cc(O)c(O)c(O)c2)[C@@H]1OC(=O)c1cc(O)c(O)c(O)c1)c1cc(O)c(O)c(O)c1 [glucosyl pentagallate] as the compound, how does the “VVG staining of elastic fibers (levels of elastin fibers)” value [1] read?
Answer: significant black staining

Question: What about the “polyphenol (ferric chloride) staining of the dermis, showing glucosyl pentagallate in the dermis” value [2] of the same compound?
Answer: more black staining in the dermis

Question: For NCCCC(=O)O [GABA, γ-aminobutyric acid], which “improvement of skin elasticity” value [3] is on record?
Answer: up to 10%

Question: With CC1=NC(C(=O)O)CCN1 (stereo not shown) [Ectoin, 1,4,5,6-tetrahydro-2-methyl-4-pyrimidinecarboxylic acid] as the compound, how does the “cell damage from UV and visible light” value (human cells) read?
Answer: prevent cell damage from UV and visible light
